Reference: ChEMBL document CHEMBL1201862, “PubChem BioAssay data set” (2004)
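The compound was tested at five concentrations on cells cultured in 96-well plates, with a 48-hour exposure period. At the GI50, growth is halved.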 The source made the active and inactive calls. Rule as the data show it: active = GI50 up to about 1.1 µM and inactive = higher.

Key:
Assay in all cases: NCI tumour cell line growth inhibition, 48 h
SK-MEL-28 = system: SK-MEL-28
SK-MEL-5 = system: SK-MEL-5
SNB-75 = system: SNB-75
NCI-H460 = system: NCI-H460
NCI/ADR-RES = system: NCI/ADR-RES
UACC-62 = system: UACC-62
HL-60 = system: HL-60
TK-10 = system: TK-10
LOX IMVI = system: LOX IMVI
SK-MEL-2 = system: SK-MEL-2
OVCAR-5 = system: OVCAR-5
NCI-H23 = system: NCI-H23
SW-620 = system: SW-620
A498 = system: A498
HCT-116 = system: HCT-116
T47D = system: T47D
MOLT-4 = system: MOLT-4
HT-29 = system: HT-29
CCRF-CEM = system: CCRF-CEM

SMILES	GI50 (SK-MEL-28)	GI50 (SK-MEL-5)	GI50 (SNB-75)	GI50 (NCI-H460)	GI50 (NCI/ADR-RES)	GI50 (UACC-62)	GI50 (HL-60)	GI50 (TK-10)	GI50 (LOX IMVI)	GI50 (SK-MEL-2)	GI50 (OVCAR-5)	GI50 (NCI-H23)	GI50 (SW-620)	GI50 (A498)	GI50 (HCT-116)	GI50 (T47D)	GI50 (MOLT-4)	GI50 (HT-29)	GI50 (CCRF-CEM)
O=C(O)CCCSc1ccccc1	> 100 µM (inactive)	> 100 µM (inactive)	> 100 µM (inactive)	> 100 µM (inactive)	> 100 µM (inactive)	> 100 µM (inactive)	> 100 µM (inactive)	> 100 µM (inactive)	> 100 µM (inactive)	> 100 µM (inactive)	> 100 µM (inactive)	> 100 µM (inactive)	> 100 µM (inactive)	> 100 µM (inactive)	> 100 µM (inactive)	> 100 µM (inactive)	> 100 µM (inactive)	> 100 µM (inactive)	> 100 µM (inactive)
O=C1NC(=S)N/C1=C\c1cc2c(=O)c3ccccc3sc2s1	40.4 µM (inactive)	> 100 µM (inactive)	26.4 µM (inactive)	64 µM (inactive)	> 100 µM (inactive)	29.4 µM (inactive)	36.5 µM (inactive)	97.7 µM (inactive)	59.7 µM (inactive)	> 100 µM (inactive)	> 100 µM (inactive)	52.8 µM (inactive)	57.8 µM (inactive)	> 100 µM (inactive)	36.4 µM (inactive)	> 100 µM (inactive)	23.5 µM (inactive)	55.1 µM (inactive)	
CC(C)CCC1(O)O[C@H]2C[C@H]3[C@@H]4CCC5CC(=O)C=C[C@]5(C)[C@H]4CC[C@]3(C)[C@H]2[C@@H]1C (stereo partly drawn)	11.5 µM (inactive)	13.7 µM (inactive)	14.3 µM (inactive)	10.3 µM (inactive)	15.6 µM (inactive)	14.6 µM (inactive)	4.45 µM (inactive)	11.8 µM (inactive)	12.7 µM (inactive)	15.2 µM (inactive)	13.1 µM (inactive)	4.26 µM (inactive)	12.1 µM (inactive)	14.6 µM (inactive)	6.79 µM (inactive)	12 µM (inactive)	2.56 µM (inactive)	7.64 µM (inactive)	3.18 µM (inactive)
CCOC(=O)C(NC(=O)CC)(Nc1ccc(F)c(Cl)c1)C(F)(F)F (stereo not drawn)	> 100 µM (inactive)	> 67.6 µM (inactive)	> 100 µM (inactive)	> 100 µM (inactive)	78.2 µM (inactive)	34.4 µM (inactive)	> 36.2 µM (inactive)	> 100 µM (inactive)		> 70 µM (inactive)	> 100 µM (inactive)		> 100 µM (inactive)	> 100 µM (inactive)	> 100 µM (inactive)	> 100 µM (inactive)	> 74.8 µM (inactive)	> 100 µM (inactive)	35.6 µM (inactive)
COC(=O)CNC(=O)CSc1nnc(COc2ccc(Cl)cc2)n1-c1ccccc1	26.6 µM (inactive)		17.3 µM (inactive)	56.8 µM (inactive)	> 100 µM (inactive)	39.5 µM (inactive)	30.1 µM (inactive)	22 µM (inactive)	31.3 µM (inactive)	23.5 µM (inactive)	56.1 µM (inactive)	40.3 µM (inactive)	43.6 µM (inactive)	> 100 µM (inactive)	94.4 µM (inactive)	26.6 µM (inactive)	64.1 µM (inactive)	40.6 µM (inactive)	57.4 µM (inactive)
O=c1c(-c2ccccc2)c(SCCN2CCCC2)n(-c2ccccc2)c(=S)n1-c1ccccc1	> 100 µM (inactive)		34.4 µM (inactive)	> 100 µM (inactive)	> 100 µM (inactive)	> 100 µM (inactive)	> 100 µM (inactive)	> 100 µM (inactive)	> 100 µM (inactive)	> 100 µM (inactive)	> 100 µM (inactive)	> 100 µM (inactive)	> 100 µM (inactive)	> 100 µM (inactive)	> 100 µM (inactive)	> 100 µM (inactive)	> 100 µM (inactive)	> 100 µM (inactive)	> 100 µM (inactive)
CCC(C#N)(c1ccccc1)N(CCc1ccccc1)C(=O)c1ccccc1 (stereo not drawn)	42.6 µM (inactive)	> 100 µM (inactive)	29.5 µM (inactive)		54.3 µM (inactive)	49.5 µM (inactive)	> 100 µM (inactive)	62.1 µM (inactive)	> 100 µM (inactive)	67 µM (inactive)	> 100 µM (inactive)	76.9 µM (inactive)	> 100 µM (inactive)	24.2 µM (inactive)	24.8 µM (inactive)	> 100 µM (inactive)	> 100 µM (inactive)	> 100 µM (inactive)	> 100 µM (inactive)
CCCCCCCCCCCCCCCCCCNc1nc(=O)n(C2CC(O)C(COP(=O)(O)OCC(COP(=O)(O)OC3C(CO)OC(n4ccc(N)nc4=O)C3O)OCCCCCCCCCCCCCCCCCC)O2)cc1F (stereo not drawn)	69.7 µM (inactive)	> 100 µM (inactive)	80.5 µM (inactive)	9.2 µM (inactive)	> 100 µM (inactive)	> 100 µM (inactive)	8.36 µM (inactive)	33.1 µM (inactive)	16.7 µM (inactive)	> 100 µM (inactive)	67.1 µM (inactive)	32 µM (inactive)	> 100 µM (inactive)	36.7 µM (inactive)	27.5 µM (inactive)	80.9 µM (inactive)	0.675 µM (active)	79.1 µM (inactive)	0.402 µM (active)
CC1(C)N=C(N)N=C(N)N1c1cccc(C(=O)Nc2ccc(S(=O)(=O)F)cc2)c1	> 100 µM (inactive)	> 100 µM (inactive)	> 100 µM (inactive)	> 100 µM (inactive)	> 100 µM (inactive)	> 100 µM (inactive)	> 100 µM (inactive)	> 100 µM (inactive)	> 100 µM (inactive)	> 100 µM (inactive)	> 100 µM (inactive)	> 100 µM (inactive)	> 100 µM (inactive)	> 100 µM (inactive)	> 100 µM (inactive)	> 100 µM (inactive)	> 100 µM (inactive)	> 100 µM (inactive)	> 100 µM (inactive)
N#Cc1c(=O)c2ccccc2n2c1[nH]c1ccccc12	52.2 µM (inactive)		43.1 µM (inactive)	37 µM (inactive)	15.3 µM (inactive)	29.4 µM (inactive)	18.7 µM (inactive)	49.5 µM (inactive)	20.6 µM (inactive)	47.3 µM (inactive)	> 100 µM (inactive)	55.2 µM (inactive)	48.5 µM (inactive)	25.1 µM (inactive)	30.5 µM (inactive)	22.7 µM (inactive)	12.4 µM (inactive)	30.5 µM (inactive)	17.8 µM (inactive)
CSc1c(C#N)c(O)nc(N)c1C(=O)Nc1ccc(Cl)cc1	14.7 µM (inactive)	10.4 µM (inactive)	37.8 µM (inactive)	6.32 µM (inactive)	17.4 µM (inactive)	0.853 µM (active)	13.2 µM (inactive)	29.3 µM (inactive)	1.74 µM (inactive)	6.25 µM (inactive)	33 µM (inactive)	16.8 µM (inactive)	5.65 µM (inactive)	16.6 µM (inactive)	5.45 µM (inactive)	8.38 µM (inactive)	18.8 µM (inactive)	22.2 µM (inactive)	30.3 µM (inactive)
CC(=O)O[C@H]1CC[C@@]2(C)C(=CC[C@H]3[C@@H]4C/C(=C\c5ccc(N(C)C)cc5)[C@H](OC(C)=O)[C@@]4(C)CC[C@@H]32)C1	12.7 µM (inactive)	12.5 µM (inactive)	15.8 µM (inactive)	5.19 µM (inactive)	13.1 µM (inactive)	6.41 µM (inactive)	11.5 µM (inactive)	15.6 µM (inactive)	8.91 µM (inactive)	8.53 µM (inactive)	19.6 µM (inactive)	13.1 µM (inactive)	14.9 µM (inactive)	18.9 µM (inactive)	6.37 µM (inactive)	5.56 µM (inactive)	5.98 µM (inactive)	8.43 µM (inactive)	
CC1(C)CCC2=C(O1)/C(=N\Nc1ccc(S(N)(=O)=O)cc1)c1ccccc1C2=O	18.7 µM (inactive)	1.81 µM (inactive)	4.38 µM (inactive)	12 µM (inactive)	20.2 µM (inactive)	18.2 µM (inactive)	15.1 µM (inactive)	14.5 µM (inactive)	4.41 µM (inactive)	11.9 µM (inactive)	18.1 µM (inactive)	6.55 µM (inactive)	20.7 µM (inactive)	2.37 µM (inactive)	11.6 µM (inactive)	15.6 µM (inactive)	27.4 µM (inactive)	14.7 µM (inactive)	11.3 µM (inactive)
CC(=O)Nn1c(=S)[nH]c2ccccc21	> 100 µM (inactive)	> 100 µM (inactive)		> 100 µM (inactive)	> 100 µM (inactive)	> 100 µM (inactive)	> 100 µM (inactive)	> 100 µM (inactive)	> 100 µM (inactive)	> 100 µM (inactive)	> 100 µM (inactive)	> 100 µM (inactive)	> 100 µM (inactive)	> 100 µM (inactive)	> 100 µM (inactive)	> 100 µM (inactive)	> 100 µM (inactive)	> 100 µM (inactive)	> 100 µM (inactive)
COc1cc(C2c3cccc4cccc(c34)C3CCC(=O)N32)cc(O)c1O (stereo not drawn)	33.5 µM (inactive)		> 50 µM (inactive)	36.5 µM (inactive)	37.7 µM (inactive)	25.6 µM (inactive)	14.6 µM (inactive)			> 50 µM (inactive)	> 50 µM (inactive)	27.1 µM (inactive)	28.6 µM (inactive)	> 50 µM (inactive)	20.7 µM (inactive)	29.9 µM (inactive)	12.7 µM (inactive)	48.1 µM (inactive)	10.9 µM (inactive)
